Results reported in PubChem BioAssay AID602459 (Sanford-Burnham Center for Chemical Genomics, 2012).

Target: Neurotensin receptor type 1 (Homo sapiens) (UniProt P30989)
Test: agonism at neurotensin receptor 1, calcium readout – cell-based, fluorescence, calcium flux, dose response, SAR follow-up (AID 602459)
Conditions: NTR1-expressing cells, agonist mode; call rule not given here

Sequence of Neurotensin receptor type 1 (Homo sapiens) (P30989 whole entry, looked up): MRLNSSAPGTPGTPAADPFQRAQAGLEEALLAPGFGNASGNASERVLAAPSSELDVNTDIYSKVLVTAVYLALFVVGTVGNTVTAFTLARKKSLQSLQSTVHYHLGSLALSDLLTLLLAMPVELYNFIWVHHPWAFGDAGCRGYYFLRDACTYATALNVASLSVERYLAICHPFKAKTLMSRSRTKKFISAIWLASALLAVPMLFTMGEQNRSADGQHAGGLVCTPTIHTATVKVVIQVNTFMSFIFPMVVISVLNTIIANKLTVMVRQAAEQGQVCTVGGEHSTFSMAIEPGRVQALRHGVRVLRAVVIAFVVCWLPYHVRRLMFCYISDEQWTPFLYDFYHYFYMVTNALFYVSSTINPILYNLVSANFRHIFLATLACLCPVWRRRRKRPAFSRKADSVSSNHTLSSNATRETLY

EC50, active:
COc1cccc(OC)c1-c1nc(C(=O)N[C@@H](CC(C)C)C(=O)O)cn1-c1ccnc2cc(Cl)ccc12 298 nM
COc1cccc(OC)c1-c1cc(C(=O)N[C@@H](CC(C)C)C(=O)O)nn1-c1ccnc2cc(Cl)ccc12 < 156 nM
COc1cc2c3nnc(-c4ccc(F)cc4)c-3cn(Cc3cccc(C)c3)c2cc1OC 1500 nM
